Results from patent US10028992B2, “Methods of treating muscular dystrophy” (BOARD OF REGENTS OF THE NEVADA SYSTEM OF HIGHER EDUCATION …, priority 2012, dated 2018).
Where two headings read alike, the source gives them in different places.

Test system: α7 integrin promoter
Experiment: muscle cell-based assay: α7βgal+/− myoblasts/myotubes, LacZ reporter, β-galactosidase cleavage of FDG
Set-up: species or system mouse
Settings: for AC50 / Emax: Mus musculus; for AC50: log of AC50, given with negative sign, unit of AC50 not given, read-out: Fit Log AC50 (converted); for Emax: read-out: Max Response [%]
Description: An α7 integrin null mouse was produced in which exon 1 of the gene encoding the α7 integrin was replaced by the LacZ reporter. In these mice, all the transcriptional regulatory elements of the α7 integrin promoter were retained, allowing β-galactosidase to report expression of 7 integrin. A primary myoblast cell line (designated α7βgal^+/−) isolated from 10 day old α7^+/− pups were analyzed for the ability of β-galactosidase to report α7 integrin expression. α7βgal^+/− myoblasts were differentiated and subjected to X-gal staining and western analysis (FIGS. 1A and 1B).
The activity of the α7 integrin promoter was measured by β-galactosidase cleavage of the non-fluorescent compound fluorescein di-β-D-galactopyranoside (FDG) to fluorescein. This assay was used to screen compound libraries to identify molecules that up-regulate α7 integrin expression in muscle.
Also evaluated was the effect of various isoforms of laminin and the ligand for α7β1 integrin on integrin expression. Positive hits were subjected to dose-response analysis, western analysis and a myostatin counterscreen (a negative regulator of muscle growth).

[1] = Table 12, fitted activity at zero concentration
[2] = Table 12 Compound data, concentration-response curve fit

## C/C(CC(=O)Nc1ccc(Cl)c(C(F)(F)F)c1)=N\NC(=O)c1cnccn1 [Compound 38]
Table 12
  AC50: 4.47 µM
  Emax: 72.7%
Table 12, curve fit
  Fit HillSlope: 4.9549
[1]
  Fit Zero Activity [%]: −2.0156%
Table 12, key not given
  Fit Curve Class: 1.2
[2]
  Score: 63

## Cc1ccc(-c2onc3ccc(C(=O)/C=C/N(C)C)cc23)cc1 [Compound 39]
Table 12
  AC50: 3.55 µM
  Emax: 69.1%
Table 12, curve fit
  Fit HillSlope: 1.7529
[1]
  Fit Zero Activity [%]: −9.0026%
Table 12, key not given
  Fit Curve Class: 1.2
[2]
  Score: 63

## Cc1cccn2c(=O)c3cc(C(=O)NC4CCCCC4)n(C)c3nc12 [Compound 40]
Table 12
  AC50: 14.1 µM
  Emax: 427%
Table 12, curve fit
  Fit HillSlope: 4.5045
[1]
  Fit Zero Activity [%]: −3.212%
Table 12, key not given
  Fit Curve Class: 2.1
[2]
  Score: 48

## COc1ccc(Cl)cc1NC(=O)CC(=O)Nc1cc(Cl)ccc1OC [Compound 41]
Table 12
  AC50: 14.1 µM
  Emax: 453%
Table 12, curve fit
  Fit HillSlope: 4.5045
[1]
  Fit Zero Activity [%]: 8.8874%
Table 12, key not given
  Fit Curve Class: 2.1
[2]
  Score: 48

## COc1cc(/C=C/CN2CCN(Cc3ccc(C)o3)C(CCO)C2)ccc1O (stereo not drawn) [Compound 42]
1.530 μM
  Activity at 1.530 μM [%] **: 0%
Table 12
  AC50: 14.1 µM
  Emax: 481%
Table 12, curve fit
  Fit HillSlope: 4.9549
[1]
  Fit Zero Activity [%]: 9.6207%
Table 12, key not given
  Fit Curve Class: 2.1
[2]
  Score: 48

## O=C(Cn1cccc1C(=O)c1ccccc1)NCCCc1ccccc1 [Compound 43]
Table 12
  AC50: 3.98 µM
  Emax: 131%
Table 12, curve fit
  Fit HillSlope: 0.9
[1]
  Fit Zero Activity [%]: 0%
Table 12, key not given
  Fit Curve Class: 2.1
[2]
  Score: 47

## CC(=O)Nc1ccc(N(C(=O)c2cnccn2)C(C(=O)NC2CCCCC2)c2ccc(F)cc2)cc1 (stereo not drawn) [Compound 44]
Table 12
  AC50: 11.2 µM
  Emax: 308%
Table 12, curve fit
  Fit HillSlope: 4.095
[1]
  Fit Zero Activity [%]: −17.6073%
Table 12, key not given
  Fit Curve Class: 2.1
[2]
  Score: 47

## COc1ccc(N2CCCC2)c(NC(=O)c2ccc([N+](=O)[O-])o2)c1 [Compound 46]
Table 12
  AC50: 7.94 µM
  Emax: 156%
Table 12, curve fit
  Fit HillSlope: 1.01
[1]
  Fit Zero Activity [%]: −35.6022%
Table 12, key not given
  Fit Curve Class: 2.1
[2]
  Score: 46

## CC(=O)Nc1ccc(NC(=O)[C@@H](NC(=O)c2cccc(C)c2)C(C)C)cc1 [Compound 47]
Table 12
  AC50: 5.62 µM
  Emax: 142%
Table 12, curve fit
  Fit HillSlope: 1.331
[1]
  Fit Zero Activity [%]: 12.5272%
Table 12, key not given
  Fit Curve Class: 2.1
[2]
  Score: 46

## O=C(O)c1cc(/N=C/c2c(O)oc3ccccc3c2=O)ccc1O [Compound 48]
Table 12
  AC50: 7.08 µM
  Emax: 165%
Table 12, curve fit
  Fit HillSlope: 1.7137
[1]
  Fit Zero Activity [%]: −35.4511%
Table 12, key not given
  Fit Curve Class: 2.1
[2]
  Score: 46

## O=[N+]([O-])c1ccc(N2CCN(c3ccccc3F)CC2)nc1 [Compound 49]
Table 12
  AC50: 5.62 µM
  Emax: 151%
Table 12, curve fit
  Fit HillSlope: 1.9282
[1]
  Fit Zero Activity [%]: 2.973%
Table 12, key not given
  Fit Curve Class: 2.1
[2]
  Score: 46

## O=C1SC(Cc2ccccc2)C(=O)N1c1ccccc1 (stereo not drawn) [Compound 50]
Table 12
  AC50: 7.94 µM
  Emax: 176%
Table 12, curve fit
  Fit HillSlope: 1.8851
[1]
  Fit Zero Activity [%]: 5.0579%
Table 12, key not given
  Fit Curve Class: 2.1
[2]
  Score: 46

## Cc1ccc(NCc2nnc(SCC(=O)Nc3nnc(C)s3)n2C)cc1 [Compound 51]
Table 12
  AC50: 10 µM
  Emax: 249%
Table 12, curve fit
  Fit HillSlope: 4.9549
[1]
  Fit Zero Activity [%]: −23.8252%
Table 12, key not given
  Fit Curve Class: 2.1
[2]
  Score: 46

## CC1CCCCN1c1ncnc(N)c1[N+](=O)[O-] (stereo not drawn) [Compound 52]
Table 12
  AC50: 4.47 µM
  Emax: 130%
Table 12, curve fit
  Fit HillSlope: 1.4781
[1]
  Fit Zero Activity [%]: −27.7073%
Table 12, key not given
  Fit Curve Class: 2.1
[2]
  Score: 46

## O=C(Nc1ccc(Cl)cc1N1CCOCC1)C1CCCCC1 [Compound 53]
0.307 μM
  Activity at 0.307 μM [%] **: 0%
Table 12
  AC50: 7.08 µM
  Emax: 119%
Table 12, curve fit
  Fit HillSlope: 0.8
[1]
  Fit Zero Activity [%]: −11.267%
Table 12, key not given
  Fit Curve Class: 2.1
[2]
  Score: 45

## CCCn1c(-c2cc(OC)c(OC)c(OC)c2)nc2c1c(=O)[nH]c(=O)n2Cc1ccccc1 [Compound 54]
Table 12
  AC50: 12.6 µM
Table 12, curve fit
  Fit HillSlope: 1.1341
[1]
  Fit Zero Activity [%]: 39.3368%
Table 12, key not given
  Fit Curve Class: 2.1
[2]
  Score: 45

## CS(=O)(=O)c1ccc(Cl)c(NC(=O)CSc2nncn2-c2ccccc2)c1 [Compound 55]
Table 12
  AC50: 12.6 µM
Table 12, curve fit
  Fit HillSlope: 4.9549
[1]
  Fit Zero Activity [%]: −18.4203%
Table 12, key not given
  Fit Curve Class: 2.1
[2]
  Score: 45

## CC(C)(CC(=O)O)CC(=O)N1CCCN(c2nccc(C(F)(F)F)n2)CC1 [Compound 56]
Table 12
  AC50: 3.98 µM
Table 12, curve fit
  Fit HillSlope: 1.5095
[1]
  Fit Zero Activity [%]: 21.8862%
Table 12, key not given
  Fit Curve Class: 2.1
[2]
  Score: 45

## COc1cc(CNCc2ccc(C(=O)O)cc2)ccc1OCc1ccc(F)cc1.Cl [Compound 57]
Table 12
  AC50: 4.47 µM
Table 12, curve fit
  Fit HillSlope: 1.7529
[1]
  Fit Zero Activity [%]: −0.5596%
Table 12, key not given
  Fit Curve Class: 2.1
[2]
  Score: 45

## COc1ccc(Nc2ncnc3ccc(C)cc23)cc1 [Compound 58]
Table 12
  AC50: 3.55 µM
Table 12, curve fit
  Fit HillSlope: 0.9
[1]
  Fit Zero Activity [%]: −42.3624%
Table 12, key not given
  Fit Curve Class: 2.1
[2]
  Score: 45

## COc1ccc(-n2c(C)c(C(C)=O)c3cc(OC(C)=O)ccc32)cc1 [Compound 59]
Table 12
  AC50: 10 µM
Table 12, curve fit
  Fit HillSlope: 3.5722
[1]
  Fit Zero Activity [%]: −3.6299%
Table 12, key not given
  Fit Curve Class: 2.1
[2]
  Score: 45

## O=C(COC(=O)c1cc2ccccc2oc1=O)Nc1ccc(F)cc1F [Compound 60]
Table 12
  AC50: 4.47 µM
Table 12, curve fit
  Fit HillSlope: 1.7529
[1]
  Fit Zero Activity [%]: −12.5146%
Table 12, key not given
  Fit Curve Class: 2.1
[2]
  Score: 45

## CCNC(=O)CSc1nc(-c2ccc(F)cc2)cs1 [Compound 61]
Table 12
  AC50: 5.01 µM
Table 12, curve fit
  Fit HillSlope: 1.1705
[1]
  Fit Zero Activity [%]: −3.94%
Table 12, key not given
  Fit Curve Class: 2.1
[2]
  Score: 45

## CC(C)NC(=O)CN1CCN(C(=O)CCl)CC1.Cl [Compound 62]
Table 12
  AC50: 7.08 µM
Table 12, curve fit
  Fit HillSlope: 1.9673
[1]
  Fit Zero Activity [%]: −23.864%
Table 12, key not given
  Fit Curve Class: 2.1
[2]
  Score: 45

## CS(=O)(=O)N(Cc1ccc(C(=O)NC2CCCC2)cc1)c1ccccc1 [Compound 63]
Table 12
  AC50: 10 µM
Table 12, curve fit
  Fit HillSlope: 3.1925
[1]
  Fit Zero Activity [%]: −1.7425%
Table 12, key not given
  Fit Curve Class: 2.1
[2]
  Score: 45

## C=CCN(CC=C)C(=O)c1ccc(OC2CCN(S(=O)(=O)N(C)C)CC2)cc1 [Compound 64]
Table 12
  AC50: 5.01 µM
Table 12, curve fit
  Fit HillSlope: 2.4729
[1]
  Fit Zero Activity [%]: −4.9734%
Table 12, key not given
  Fit Curve Class: 2.1
[2]
  Score: 45

## O=C(O)CCn1cc(/C=C2/NC(=S)N(c3ccccc3)C2=O)c(-c2ccccc2)n1 [Compound 65]
  Curve Description: Partial
  Fit Curve Class: 2.1
  Fit HillSlope: 4.095
  Fit Infinite Activity [%]: 501.215%
  Fit Log AC50: −4.7
  Fit Zero Activity [%]: 9.2299%
  Score: 45

## CCc1nnc(NC(=O)c2ccc(S(=O)(=O)NCC(C)C)cc2)s1 [Compound 66]
Table 12
  AC50: 12.6 µM
Table 12, curve fit
  Fit HillSlope: 4.5045
[1]
  Fit Zero Activity [%]: 11.9175%
Table 12, key not given
  Fit Curve Class: 2.1
[2]
  Score: 45
